US9937235B2, “Lipidated peptides as anti-obesity agents” (USTAV ORGANICKE CHEMIE A BIOCHEMIE AKADEMIE VED CR, V.V.I, priority 2012, dated 2018)
The star is where a group is joined. Myristoyl = CCCCCCCCCCCCCC(=O)*

Tested on: DIO C57BL/6 male mice
Assay: 14-day SC administration in diet-induced obese (DIO) mice
Assay type: in vivo, mouse
Protocol: Inbred C57BL/6 male mice (AnLab, Prague, Czech Republic) were housed at a temperature of 23° C. under a daily cycle of 12 hours light and dark (light from 6:00 a.m.) with free access to water and food pellets (St-1, Mlýn Kocanda, Jesenice, Czech Republic).
At 8 weeks of age, mice were divided into a standard (St) diet-fed group (the energy content of the St-1 diet was 3.4 kcal/g, containing 25, 9, and 66% of calories from protein, fat, and carbohydrate, respectively (St-1, Mlýn Kocanda, Jesenice, Czech Republic)) and a high fat (HF) diet-fed group (the energy content of the HF diet was 5.3 kcal/g, containing 13, 60, and 27% of calories from protein, fat, and carbohydrate, respectively). […] Food intake and body weight were monitored weekly from 9 to 20 weeks of age. Mice resistant to the HF diet were withdrawn from the experiment (approximately 10% of mice).
At the age of 20 weeks, mice were placed into separate cages with free access to food and water. The following week, mice were subjected to a 14-day food intake experiment. They were injected with palm-PrRP31 or myr-PrRP20 dissolved in saline at doses of 5 mg/kg (n=10) or saline twice a day (at 8:00 and 18:00) for 14 days. Consumption of the St or HF diet and the weight of the mice were simultaneously followed.
After 14 days of treatment, mice were fasted overnight and sacrificed the following morning. Their blood sera were isolated, and the white adipose tissue (subcutaneous, abdominal, and gonadal), and the liver of all mice were dissected, weighed, and stored at −70° C. Fat to body weight ratio was calculated as a ratio of adipose tissue weight to body weight.
Serum insulin and leptin concentrations were measured by RIA assays. Serum glucose levels were measured using a Glucocard glucometer (Arkray, Kyoto, Japan). Serum triglyceride levels were measured by quantitative enzymatic reactions (Sigma, St. Louis, USA).
They were analyzed by a one-way ANOVA followed by a Dunnett post-hoc test (metabolic parameters, behavioral study) or two-way ANOVA followed by a Bonferroni post-hoc test (body weight evaluation) using Graph-Pad Software (San Diego, Calif., USA). P<0.05 was considered statistically significant.

[1] = 5 mg/kg SC twice a day, 14 days, 17 h fasted DIO male mice
[2] = serum, 5 mg/kg SC twice a day, 14 days, 17 h fasted DIO male mice

Myr-PrRP20: myristoylated PrRP20 given to DIO mice; analog number (rat 10 or human 13/55) not stated (Myristoyl-TPDINPAWYASRGIRPVGRF-NH2; ends and bridges not checked; UniProt P81277 34-53, looked up)
Fat/body weight [%] [1]: 15.30 ± 0.42%
Liver/body weight [%] [1]: 3.60 ± 0.18 %
Body weight of DIO mice (5 mg/kg SC twice per day for 14 days, FIG. 9): significantly decreased
Glucose [2]: 7.52 ± 0.16 mmol/L
Insulin [2]: 3.54 ± 0.47 ng/mL
Leptin [2]: 39.56 ± 3.47 ng/mL
Triglycerides [2]: 68.71 ± 4.16 mg/dL
